22 compounds from ChEMBL document CHEMBL2150925, “The Synthesis and Antimicrobial Activity of Heterocyclic Derivatives of Totarol” (ACS Med Chem Lett, 2012) can be followed below.

Converted amounts (≈) assume the structure as drawn. The source made the active and inactive calls. No cut-off for these calls is given here.

In experiment [1] the test system is Bacillus subtilis. In words: Antibacterial activity against Bacillus subtilis 168 after 16 hrs. As to conditions: subsp. subtilis str. 168, 16 h. In kind it is functional.
In experiment [2] the target is T1, Cell division protein FtsZ (Bacillus subtilis (strain 168)) (UniProt P17865).
T1 sequence (whole entry): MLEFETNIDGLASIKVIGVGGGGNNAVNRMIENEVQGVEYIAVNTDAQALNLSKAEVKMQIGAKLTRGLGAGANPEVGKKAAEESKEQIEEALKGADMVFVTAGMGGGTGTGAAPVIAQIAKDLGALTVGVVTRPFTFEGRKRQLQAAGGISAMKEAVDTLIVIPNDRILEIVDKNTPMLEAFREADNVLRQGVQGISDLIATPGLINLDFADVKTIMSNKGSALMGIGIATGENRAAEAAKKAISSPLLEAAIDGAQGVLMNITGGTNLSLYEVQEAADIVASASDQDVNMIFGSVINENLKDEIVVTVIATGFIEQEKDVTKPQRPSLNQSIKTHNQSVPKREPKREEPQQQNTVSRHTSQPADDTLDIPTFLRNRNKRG
The experiment in a line: Inhibition of Bacillus subtilis FtsZ GTPase activity up to 64 uM by enzyme-coupled assay.

The test system of experiment [3] is Bacillus subtilis. In words: Ratio of totarol MIC to compound MIC for Bacillus subtilis 168. In kind it is functional, subsp. subtilis str. 168.
Experiment [4] deals with T2, Cell division protein FtsZ (Bacillus subtilis (strain 168), UniProt P17865).
T2 sequence (P17865 whole entry): T1 sequence (whole entry)
The experiment in a line: Inhibition of Bacillus subtilis FtsZ GTPase activity by enzyme-coupled assay.

Experiment [5] deals with T1, Cell division protein FtsZ (Bacillus subtilis (strain 168)). The experiment in a line: Inhibition of Bacillus subtilis FtsZ GTPase activity by enzyme-coupled assay in presence of 0.01% triton X-100.

One may read the MIC as the lowest concentration found to suppress growth. Low values mean a more susceptible organism, high ones a less susceptible organism. `COc1ccc2c(c1C(C)C)CC[C@H]1C(C)(C)C(=O)/C(=C\O)C[C@]21C` gave an MIC in experiment [1] of over 160 µM.
On the same count and under the same terms, as for `CC(C)c1c(O)ccc2c1CC[C@H]1C(C)(C)c3[nH]ncc3C[C@]21C`, the figure is over 160 µM.
Regarding `CC(C)c1c(O)ccc2c1CC[C@H]1C(C)(C)c3c(cnn3-c3ccccc3)C[C@]21C`, the MIC in experiment [1] is over 160 µM.
As for `CC(C)c1c(O)ccc2c1CC[C@H]1C(C)(C)c3oncc3C[C@]21C`, in experiment [1], the MIC stood at 40 µM (≈ 13 µg/mL). This lies in the double-digit micromolar range.
The compound `CC(C)c1c(O)ccc2c1CC[C@H]1C(C)(C)c3[nH]c4ccccc4c3C[C@]21C` returned a minimum inhibitory concentration (MIC) in experiment [1] of 2.5 µM (≈ 0.934 µg/mL). In addition, the inhibition entry in experiment [2] is “inactive”. In experiment [3], the Ratio is listed as 4.
`CC(C)c1c(O)ccc2c1CC[C@H]1C(C)(C)/C(=N/O)CC[C@]21C` had an MIC in experiment [1] of over 160 µM.
Same read-out and setting: the figure for `CC(C)c1c(O)ccc2c1CC[C@H]1C(C)(C)NC(=O)CC[C@]21C` is over 160 µM; for `CC(C)c1c(O)ccc2c1CC[C@H]1C(C)(C)C(N)CC[C@]21C` (some centres not stated) it is over 160 µM; for `CC(C)c1c(O)ccc2c1NC[C@H]1C(C)(C)CCC[C@]21C` it is 20 µM (≈ 5.75 µg/mL).
On the same count and under the same terms, as for `CC(=O)N1C[C@H]2C(C)(C)CCC[C@]2(C)c2ccc(O)c(C(C)C)c21`, the figure is over 256 µM; as for `COc1ccc2c(c1C(C)C)CC[C@H]1C(C)(C)c3[nH]c4ccc(C#N)cc4c3C[C@]21C` (racemic), over 100 µM; as for `CC(C)c1c(O)ccc2c1CC[C@H]1C(C)(C)c3[nH]c4c(Cl)cc(Cl)cc4c3C[C@]21C` (racemic), 0.78 µM (≈ 0.345 µg/mL).
As for `CC(C)c1c(O)ccc2c1CC[C@H]1C(C)(C)c3[nH]c4ccc(C(F)(F)F)cc4c3C[C@]21C` (racemic), in experiment [1], the minimal inhibitory concentration (MIC) is 0.78 µM (≈ 0.344 µg/mL).
`CC(C)c1c(O)ccc2c1CC[C@H]1C(C)(C)c3[nH]c4ccc(C#N)cc4c3C[C@]21C` (racemic) showed an MIC in experiment [1] of 0.78 µM (≈ 0.311 µg/mL). Also, the inhibition entry in experiment [2] was “inactive”.
As to `CC(C)c1c(O)ccc2c1CC[C@H]1C(C)(C)c3[nH]c4ccc(F)cc4c3C[C@]21C` (racemic), in experiment [1], 80 µM (≈ 31.3 µg/mL) was the least that counted as inhibitory (MIC). In other words, the double-digit micromolar range.
Still for that read-out and setting: as for `CCc1ccc2[nH]c3c(c2c1)C[C@]1(C)c2ccc(O)c(C(C)C)c2CC[C@H]1C3(C)C` (racemic), the figure is 2.5 µM (≈ 1 µg/mL).
On the same count and under the same terms, the figure for `CC(C)c1c(O)ccc2c1CC[C@H]1C(C)(C)c3[nH]c4ccc(S(N)(=O)=O)cc4c3C[C@]21C` (racemic) is 5.5 µM (≈ 2.49 µg/mL); for `Cc1ccc2c3c([nH]c2c1C)C(C)(C)[C@@H]1CCc2c(ccc(O)c2C(C)C)[C@@]1(C)C3` (racemic) it is 11 µM (≈ 4.42 µg/mL); for `CCc1cccc2c3c([nH]c12)C(C)(C)[C@@H]1CCc2c(ccc(O)c2C(C)C)[C@@]1(C)C3` (racemic) it is 1 µM (≈ 0.402 µg/mL).
Still for that read-out and setting: as for `CC(C)c1c(O)ccc2c1CC[C@H]1C(C)(C)c3[nH]c4c(O)cccc4c3C[C@]21C` (racemic), the figure is 6.3 µM (≈ 2.45 µg/mL).
The term IC50 denotes the midpoint of a concentration-inhibition curve. Lower therefore signals greater potency. Consider `CC(C)c1c(O)ccc2c1CC[C@H]1C(C)(C)CCC[C@]21C` [TOTAROL], for which, in experiment [4], the 50% inhibitory concentration (IC50) came to 24 µM. The compound further gave a minimum inhibitory concentration (MIC) in experiment [1] of 2.5 µM (≈ 0.716 µg/mL). Besides, the inhibition result in experiment [5] was “inactive”.
For `CN[C@H](CC(C)C)C(=O)N[C@H]1C(=O)N[C@@H](CC(N)=O)C(=O)N[C@H]2C(=O)N[C@H]3C(=O)N[C@H](C(=O)N[C@H](C(=O)O)c4cc(O)cc(O)c4-c4cc3ccc4O)[C@H](O)c3ccc(c(Cl)c3)Oc3cc2cc(c3O[C@@H]2O[C@H](CO)[C@@H](O)[C@H](O)[C@H]2O[C@H]2C[C@](C)(N)[C@H](O)[C@H](C)O2)Oc2ccc(cc2Cl)[C@H]1O` [VANCOMYCIN], the MIC in experiment [1] turned out to be 0.63 µM (≈ 0.913 µg/mL).
